Reference: ChEMBL document CHEMBL4806962, “Methods and Compositions for Treating Cancer” (2020)
Active and inactive are the calls of the source. The calls are words filed in the database; no cut-off is given here.

Tested on: PBMC
Experiment: Effects of compound on IL-2 production in anti-CD3/CD28-stimulated human PBMCs assessed as increase in IL-2 level after 2 days by ELISA
Assay type: functional, tissue-based
Settings: dose 1-10 µM, time 2.0 day

| Compound | Activity |
| --- | --- |
| O=C(c1ccccc1)N1CCN(c2cc(N3CCCCC3)c(F)cc2[N+](=O)[O-])CC1 | Dose-Dependent Effect |

Biological target: T1, Probable G-protein coupled receptor 174 (Homo sapiens, UniProt Q9BXC1)
T1 sequence (Q9BXC1 whole entry): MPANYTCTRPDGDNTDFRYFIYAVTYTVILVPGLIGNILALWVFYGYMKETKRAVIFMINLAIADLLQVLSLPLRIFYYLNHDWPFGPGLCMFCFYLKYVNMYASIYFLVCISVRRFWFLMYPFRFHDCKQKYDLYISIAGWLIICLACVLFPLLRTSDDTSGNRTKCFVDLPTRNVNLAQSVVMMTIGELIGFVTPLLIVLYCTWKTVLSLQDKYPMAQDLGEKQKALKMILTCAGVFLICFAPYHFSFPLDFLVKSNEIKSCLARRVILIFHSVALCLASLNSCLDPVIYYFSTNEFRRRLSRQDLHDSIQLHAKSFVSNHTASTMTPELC
Experiment: Inverse agonist activity at human GPR174 assessed as fold decrease in Gs signalling activity by CRA
Assay type: functional
Settings: filed as inverse agonist

| Compound | fold change (FC) |
| --- | --- |
| CCOc1ccc(C2C3=C(CCCC3=O)NC3=C2C(=O)c2ccccc23)cn1 (stereo unspecified) | 0.6 |
| CCc1ccc(C2C3=C(CCCC3=O)NC3=C2C(=O)c2ccccc23)cc1 (stereo unspecified) | 0.5 |
| CC(C)C(=O)N1CCN(c2cc(N3CCCCC3C)c(F)cc2[N+](=O)[O-])CC1 (stereo unspecified) | 0.8 |
| Cc1nnc(-c2ccc(C3C4=C(CCCC4=O)NC4=C3C(=O)c3ccccc34)cc2)o1 (stereo unspecified) | 2.8 |
| CCCCCCOc1ccc(C2C3=C(CCCC3=O)NC3=C2C(=O)c2ccccc23)cc1 (stereo unspecified) | 0.5 |
| CCOC(=O)N1CCN(c2cc(N3CCC(C)CC3)c(F)cc2[N+](=O)[O-])CC1 | 0.4 |
| O=[N+]([O-])c1cc(F)c(N2CCCCCC2)cc1N1CCN(S(=O)(=O)c2ccccc2)CC1 | 1.8 |
| Cc1ccc(S(=O)(=O)N2CCN(c3cc(N4CCCCC4)c(F)cc3[N+](=O)[O-])CC2)cc1 | 1.7 |
| C=C(C)COc1ccc(NC(=O)Nc2ccccc2)cc1 | 0.5 |
| CCc1ccc(C2C3=C(CCCC3=O)NC3=C2C(=O)c2ccccc23)cn1 (stereo unspecified) | 2 |
| CCCOc1ccc(C2C3=C(CCCC3=O)NC3=C2C(=O)c2ccccc23)cc1 (stereo unspecified) | 1 |
| CCC(=O)N1CCN(c2cc(N3CCC(C)CC3)c(F)cc2[N+](=O)[O-])CC1 | 0.4 |
| O=C1CCCC2=C1C(c1ccc(-c3ccccc3)cc1)C1=C(N2)c2ccccc2C1=O (stereo unspecified) | 2.5 |
| Cc1ccc(S(=O)(=O)N2CCN(c3cc(N4CCC(C)CC4)c(F)cc3[N+](=O)[O-])CC2)cc1 | 1.1 |
| O=C1CCCC2=C1C(c1ccc(OC(F)F)cc1)C1=C(N2)c2ccccc2C1=O (stereo unspecified) | 1.2 |
| CCOc1cccc(C2C3=C(CCCC3=O)NC3=C2C(=O)c2ccccc23)c1 (stereo unspecified) | 1.6 |
| CCC(=O)N1CCN(c2cc(N3CCCCC3)c(F)cc2[N+](=O)[O-])CC1 | 0.5 |
| CCCCOc1ccc(C2C3=C(CCCC3=O)NC3=C2C(=O)c2ccccc23)cc1 (stereo unspecified) | 1.2 |
| O=C1CCCC2=C1C(c1ccc(Oc3ccccc3)cc1)C1=C(N2)c2ccccc2C1=O (stereo unspecified) | 1 |
| CCOc1ccc(C2C3=C(CCCC3=O)NC3=C2C(=O)c2ccccc23)cc1 (stereo unspecified) | 0.4 |

| Compound | fold change (FC) |
| --- | --- |
| CCOC(=O)N1CCN(c2cc(N3CCCCC3)c(F)cc2[N+](=O)[O-])CC1 | 0.3 |
| O=[N+]([O-])c1cc(F)c(N2CCCCC2)cc1N1CCN(S(=O)(=O)c2ccccc2)CC1 | 0.5 |
| O=C1CCCC2=C1C(c1ccc(OC(F)(F)F)cc1)C1=C(N2)c2ccccc2C1=O (stereo unspecified) | 1.2 |
| CCOC(=O)N1CCN(c2cc(N3CCCCC3C)c(F)cc2[N+](=O)[O-])CC1 (stereo unspecified) | 1 |
| CC(C)Oc1ccc(C2C3=C(CCCC3=O)NC3=C2C(=O)c2ccccc23)cc1 (stereo unspecified) | 0.6 |
| O=C1CCCC2=C1C(c1ccc(Cl)cc1)C1=C(N2)c2ccccc2C1=O (stereo unspecified) | 3 |
| COc1ccc(C2C3=C(CCCC3=O)NC3=C2C(=O)c2ccccc23)cc1 (stereo unspecified) | 1 |
| CS(=O)(=O)c1ccc(C2C3=C(CCCC3=O)NC3=C2C(=O)c2ccccc23)cc1 (stereo unspecified) | 3.3 |
| C=CCOc1ccc(C2C3=C(CCCC3=O)NC3=C2C(=O)c2ccccc23)cc1 (stereo unspecified) | 1.2 |
| O=C1CCCC2=C1C(c1ccc([N+](=O)[O-])cc1)C1=C(N2)c2ccccc2C1=O (stereo unspecified) | 2.7 |
| CC(C)c1ccc(C2C3=C(CCCC3=O)NC3=C2C(=O)c2ccccc23)cc1 (stereo unspecified) | 1.2 |
| O=C1CCCC2=C1C(c1ccc3c(c1)OCCO3)C1=C(N2)c2ccccc2C1=O (stereo unspecified) | 2.6 |
| CCCC(=O)N1CCN(c2cc(N3CCCCC3)c(F)cc2[N+](=O)[O-])CC1 | 0.9 |
| O=C1CCCC2=C1C(c1ccc(OCCO)cc1)C1=C(N2)c2ccccc2C1=O (stereo unspecified) | 4.4 |
| O=C1CCCC2=C1C(c1ccc(OC3CCCC3)cc1)C1=C(N2)c2ccccc2C1=O (stereo unspecified) | 1 |
| CC(=O)N1CCN(c2cc(N3CCCCC3)c(F)cc2[N+](=O)[O-])CC1 | 0.3 |
| CC(C)(C)Oc1ccc(C2C3=C(CCCC3=O)NC3=C2C(=O)c2ccccc23)cc1 (stereo unspecified) | 1.3 |
| CC(=O)N1CCN(c2cc(N3CCC(C)CC3)c(F)cc2[N+](=O)[O-])CC1 | 0.8 |
| CC1CCN(c2cc(N3CCN(C(=O)c4cccs4)CC3)c([N+](=O)[O-])cc2F)CC1 | 0.4 |
| O=C(c1ccccc1)N1CCN(c2cc(N3CCCCC3)c(F)cc2[N+](=O)[O-])CC1 | 0.3 |

Biological target: T1, Probable G-protein coupled receptor 174
Experiment: Antagonist activity at human GPR174 by CRA
Assay type: functional
Settings: not given

| Compound | EC50 [nM] |
| --- | --- |
| Cc1ccccc1Nc1nnc(-c2ccc(C)c(S(N)(=O)=O)c2)c2ccccc12 | 500 |

Tested on: Splenocyte
Experiment: Effects of compound on IL-2 production in anti-CD3/CD28-stimulated wild type mouse spleenocytes assessed as fold increase in IL-2 level at 0.3 uM after 2 days in presence of NECA
Assay type: functional
Settings: time 2 day

| Compound | fold change (FC) |
| --- | --- |
| O=C(c1ccccc1)N1CCN(c2cc(N3CCCCC3)c(F)cc2[N+](=O)[O-])CC1 | 1.7 |

Tested on: Splenocyte
Experiment: Effects of compound on IL-2 production in anti-CD3/CD28-stimulated wild type mouse spleenocytes assessed as fold increase in IL-2 level at 0.3 uM after 2 days in presence of […] and NECA
Assay type: functional
Settings: time 2 day

| Compound | fold change (FC) |
| --- | --- |
| O=C(c1ccccc1)N1CCN(c2cc(N3CCCCC3)c(F)cc2[N+](=O)[O-])CC1 | 4.9 |

Tested on: Splenocyte
Experiment: Effects of compound on IL-2 production in anti-CD3/CD28-stimulated GPR174 knock out mouse spleenocytes assessed as fold increase in IL-2 level at 0.3 uM after 2 days in presence of NECA
Assay type: functional, cell-based
Settings: time 2.0 day

| Compound | Activity |
| --- | --- |
| O=C(c1ccccc1)N1CCN(c2cc(N3CCCCC3)c(F)cc2[N+](=O)[O-])CC1 | inactive |

Tested on: not listed separately
Experiment: Effects of compound on IL-2 production in anti-CD3/CD28-stimulated human PBMCs assessed as fold increase in IL-2 level at 10 uM after 24 hrs by ELISA
Assay type: functional, PBMC
Settings: not given

| Compound | fold change (FC) |
| --- | --- |
| Nc1ncnc2c1ncn2[C@@H]1O[C@H](COP(=O)(O)CP(=O)([O-])O)[C@@H](O)[C@H]1O.[Na+] | 1.5 |
